These results are taken from ChEMBL document CHEMBL1201862, “PubChem BioAssay data set” (2004).

The target in experiment [1] is Beta-adrenergic receptor kinase 1 (Homo sapiens, UniProt P25098). Nature of the experiment: blockers of aptamer binding to GRK2 – biochemical, flow cytometry beads, FAM-aptamer, powder set 1, dose response (AID 588720).
The target in experiment [2] is T1, Dual specificity protein phosphatase 6 (Rattus norvegicus, UniProt Q64346).
The target in experiment [3] is Glyceraldehyde-3-phosphate dehydrogenase (Homo sapiens, UniProt P04406).
Sequence of Glyceraldehyde-3-phosphate dehydrogenase (P04406 whole entry): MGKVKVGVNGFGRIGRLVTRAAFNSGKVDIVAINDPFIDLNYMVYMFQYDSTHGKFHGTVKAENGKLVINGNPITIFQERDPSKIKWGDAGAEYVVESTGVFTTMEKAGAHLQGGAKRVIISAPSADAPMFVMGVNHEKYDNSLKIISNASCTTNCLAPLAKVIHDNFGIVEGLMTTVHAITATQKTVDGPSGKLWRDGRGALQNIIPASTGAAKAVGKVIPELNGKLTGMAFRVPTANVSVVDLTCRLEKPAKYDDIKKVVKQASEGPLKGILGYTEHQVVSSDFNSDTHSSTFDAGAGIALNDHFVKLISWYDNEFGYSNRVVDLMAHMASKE
Experiment [4] concerns the target T2, Tyrosine-protein phosphatase non-receptor type 7 (Homo sapiens, UniProt P35236).
T2 sequence (P35236 whole entry): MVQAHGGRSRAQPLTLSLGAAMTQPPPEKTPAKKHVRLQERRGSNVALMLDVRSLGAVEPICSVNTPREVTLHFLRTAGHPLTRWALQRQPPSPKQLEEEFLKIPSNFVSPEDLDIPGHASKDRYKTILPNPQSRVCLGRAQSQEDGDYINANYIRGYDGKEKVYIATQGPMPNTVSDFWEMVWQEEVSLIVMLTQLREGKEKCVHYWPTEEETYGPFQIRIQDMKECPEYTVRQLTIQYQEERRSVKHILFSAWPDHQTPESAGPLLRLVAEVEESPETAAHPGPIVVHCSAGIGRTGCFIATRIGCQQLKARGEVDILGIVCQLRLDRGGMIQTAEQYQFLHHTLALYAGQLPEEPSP
The experiment is classed as functional.

Experiment [5] has as its target T1, Dual specificity protein phosphatase 6. The experiment is classed as functional.
Experiment [6] deals with T3, Intestinal-type alkaline phosphatase (Homo sapiens, UniProt P09923). In words: inhibition of human intestinal alkaline phosphatase – biochemical, luminescent, uHTS hits, set 2, dose response (AID 488793). In kind it is functional.
T3 sequence (P09923 whole entry): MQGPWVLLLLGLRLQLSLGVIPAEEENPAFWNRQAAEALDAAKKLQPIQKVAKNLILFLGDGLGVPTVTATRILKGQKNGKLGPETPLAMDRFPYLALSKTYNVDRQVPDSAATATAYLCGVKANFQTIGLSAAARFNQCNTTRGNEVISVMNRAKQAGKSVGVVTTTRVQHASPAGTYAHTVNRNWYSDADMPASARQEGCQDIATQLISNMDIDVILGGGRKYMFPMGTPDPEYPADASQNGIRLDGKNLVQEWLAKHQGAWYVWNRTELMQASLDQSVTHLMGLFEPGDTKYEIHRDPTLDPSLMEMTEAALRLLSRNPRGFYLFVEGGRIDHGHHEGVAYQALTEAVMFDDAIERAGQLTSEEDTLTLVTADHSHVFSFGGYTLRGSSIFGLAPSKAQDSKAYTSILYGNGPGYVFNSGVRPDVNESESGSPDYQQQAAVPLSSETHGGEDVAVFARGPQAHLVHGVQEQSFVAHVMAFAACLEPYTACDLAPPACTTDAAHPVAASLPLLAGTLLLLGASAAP
For experiment [7], the target named is T4, Alkaline phosphatase, tissue-nonspecific isozyme (Homo sapiens, UniProt P05186).
T4 sequence (P05186 whole entry): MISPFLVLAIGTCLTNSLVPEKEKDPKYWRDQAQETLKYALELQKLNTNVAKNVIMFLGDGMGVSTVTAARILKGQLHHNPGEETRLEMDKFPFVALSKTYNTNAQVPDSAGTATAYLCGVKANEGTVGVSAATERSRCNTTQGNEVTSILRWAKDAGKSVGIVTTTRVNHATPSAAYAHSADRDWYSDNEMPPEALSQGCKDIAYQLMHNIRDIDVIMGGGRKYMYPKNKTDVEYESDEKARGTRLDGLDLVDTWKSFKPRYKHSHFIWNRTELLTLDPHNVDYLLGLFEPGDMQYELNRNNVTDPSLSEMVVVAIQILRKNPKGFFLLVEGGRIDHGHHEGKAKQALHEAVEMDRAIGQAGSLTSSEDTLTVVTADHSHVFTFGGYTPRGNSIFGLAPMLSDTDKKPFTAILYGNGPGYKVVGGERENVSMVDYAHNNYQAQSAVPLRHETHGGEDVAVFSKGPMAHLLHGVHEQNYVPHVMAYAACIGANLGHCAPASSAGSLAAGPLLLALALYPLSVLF
Nature of the experiment: inhibition of tissue-nonspecific alkaline phosphatase – biochemical, dose response (AID 488882). In kind it is functional.

In the next experiment the target is Large T antigen (Simian virus 40, UniProt P03070). The experiment is classed as functional, Betapolyomavirus macacae.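 Further: Confirmatory-stage PubChem screen for compounds that inhibit SV40 T antigen.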
Sequence of Large T antigen (P03070 whole entry): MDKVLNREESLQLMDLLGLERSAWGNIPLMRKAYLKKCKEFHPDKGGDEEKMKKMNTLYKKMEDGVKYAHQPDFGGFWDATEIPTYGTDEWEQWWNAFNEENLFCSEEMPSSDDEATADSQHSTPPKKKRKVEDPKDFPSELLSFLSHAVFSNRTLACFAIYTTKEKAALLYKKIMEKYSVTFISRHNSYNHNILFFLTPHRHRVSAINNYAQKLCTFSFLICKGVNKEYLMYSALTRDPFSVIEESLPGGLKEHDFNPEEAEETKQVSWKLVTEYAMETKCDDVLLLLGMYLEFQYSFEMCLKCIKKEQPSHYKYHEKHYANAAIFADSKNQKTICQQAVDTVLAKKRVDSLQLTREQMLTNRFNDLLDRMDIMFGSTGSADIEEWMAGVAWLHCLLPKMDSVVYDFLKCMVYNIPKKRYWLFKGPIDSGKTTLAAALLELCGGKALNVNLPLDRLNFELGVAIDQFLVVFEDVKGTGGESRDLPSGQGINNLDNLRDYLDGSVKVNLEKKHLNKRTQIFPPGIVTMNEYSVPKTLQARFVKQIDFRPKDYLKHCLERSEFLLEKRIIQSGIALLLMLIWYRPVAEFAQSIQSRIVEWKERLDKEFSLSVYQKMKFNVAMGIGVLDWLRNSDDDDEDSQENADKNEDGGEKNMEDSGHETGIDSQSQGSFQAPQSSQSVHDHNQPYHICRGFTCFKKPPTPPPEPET
The target of experiment [8] is T3, Intestinal-type alkaline phosphatase. Nature of the experiment: Dose Response confirmation of uHTS hits from a small molecule inhibitors of human intestinal alkaline phosphatase via a luminescent assay. [Related pubchem assays (depositor defined):AID2544, AID2574]. The experiment is classed as functional.
The target in the next experiment is T5, Leucine aminopeptidase (Plasmodium falciparum 3D7, UniProt Q8IL11).
T5 sequence (Q8IL11 whole entry): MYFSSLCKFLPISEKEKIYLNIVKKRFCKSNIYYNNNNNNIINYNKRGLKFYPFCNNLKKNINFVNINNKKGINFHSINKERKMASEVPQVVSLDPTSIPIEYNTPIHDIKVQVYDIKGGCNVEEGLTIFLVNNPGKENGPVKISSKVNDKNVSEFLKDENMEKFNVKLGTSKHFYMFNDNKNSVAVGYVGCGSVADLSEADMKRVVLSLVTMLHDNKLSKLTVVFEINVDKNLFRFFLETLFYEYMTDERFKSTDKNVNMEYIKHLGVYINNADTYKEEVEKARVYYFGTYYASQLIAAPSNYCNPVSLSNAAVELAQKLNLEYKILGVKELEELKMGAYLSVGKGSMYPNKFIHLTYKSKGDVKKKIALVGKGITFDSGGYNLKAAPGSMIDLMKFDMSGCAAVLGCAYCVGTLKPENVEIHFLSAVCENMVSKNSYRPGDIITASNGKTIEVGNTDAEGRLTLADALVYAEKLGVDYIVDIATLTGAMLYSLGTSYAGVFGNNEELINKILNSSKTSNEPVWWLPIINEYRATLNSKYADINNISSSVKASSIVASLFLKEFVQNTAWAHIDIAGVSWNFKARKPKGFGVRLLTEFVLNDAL
Nature of the experiment: P. falciparum M17LAP inhibitors, primary screen, biochemical, fluorogenic H-Leu-NHMec substrate, 1536-well (AID 1619). The experiment is classed as functional.

Experiment [9] addresses Intestinal-type alkaline phosphatase (Mus musculus, UniProt P24822). Nature of the experiment: PubChem AID 488874. The experiment is classed as functional.
In experiment [10] the target is 5-hydroxytryptamine receptor 5A (Homo sapiens, UniProt P47898). Nature of the experiment: Counterscreen for agonists of OPRM1-OPRD1 heterodimerization: luminescence-based cell-based high throughput dose response assay to identify agonists of 5-hydroxytryptamine (serotonin) 5A receptor (HTR5A). [Related pubchem assays (depositor defined):AID504326, AID504355, AID504692, AID504904, AID504905]. The experiment is classed as functional.

For experiment [11], the target named is Delta-type opioid receptor (Homo sapiens, UniProt P41143). Nature of the experiment: Counterscreen for agonists of heterodimerization of the mu 1 (OPRM1) and delta 1 (OPRD1) opioid receptors: Luminescence-based cell-based high throughput dose response assay to identify agonists of OPRD1 homodimerization. [Related pubchem assays (depositor defined):AID504326, AID504355, AID504692, AID504904, AID504905]. In kind it is functional.
Sequence of Delta-type opioid receptor (P41143 whole entry): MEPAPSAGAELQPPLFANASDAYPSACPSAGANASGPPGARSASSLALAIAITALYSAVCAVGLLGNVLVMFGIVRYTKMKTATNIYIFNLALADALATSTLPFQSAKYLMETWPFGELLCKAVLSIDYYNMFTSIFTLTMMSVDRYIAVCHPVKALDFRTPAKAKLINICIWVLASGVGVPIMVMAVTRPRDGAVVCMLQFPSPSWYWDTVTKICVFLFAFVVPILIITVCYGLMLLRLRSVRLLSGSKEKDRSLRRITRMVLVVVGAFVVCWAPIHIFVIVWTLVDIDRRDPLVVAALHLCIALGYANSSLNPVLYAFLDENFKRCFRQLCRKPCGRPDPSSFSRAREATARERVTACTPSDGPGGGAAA

In another experiment the target is Mu-type opioid receptor (Homo sapiens, UniProt P35372). In words: Counterscreen for agonists of heterodimerization of the mu 1 (OPRM1) and delta 1 (OPRD1) opioid receptors: Luminescence-based cell-based high throughput dose response assay to identify agonists of OPRM1 homodimerization. In kind it is functional.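 Further: U2OS cells expressing OPRM1 and beta-arrestin as split beta-galactosidase partners.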
Sequence of Mu-type opioid receptor (P35372 whole entry): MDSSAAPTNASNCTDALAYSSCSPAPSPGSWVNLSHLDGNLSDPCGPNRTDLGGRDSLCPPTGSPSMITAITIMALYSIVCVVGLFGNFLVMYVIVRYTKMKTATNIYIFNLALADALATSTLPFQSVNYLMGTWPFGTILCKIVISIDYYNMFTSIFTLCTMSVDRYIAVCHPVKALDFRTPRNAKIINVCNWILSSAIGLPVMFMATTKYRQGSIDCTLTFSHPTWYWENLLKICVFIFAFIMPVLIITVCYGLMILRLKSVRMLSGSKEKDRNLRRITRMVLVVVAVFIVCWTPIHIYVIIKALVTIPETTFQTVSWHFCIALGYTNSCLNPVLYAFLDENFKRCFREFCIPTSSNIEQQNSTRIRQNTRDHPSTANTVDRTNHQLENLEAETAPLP
Experiment [12] deals with T6, Short transient receptor potential channel 4 (Mus musculus, UniProt Q9QUQ5).
T6 sequence (Q9QUQ5 whole entry): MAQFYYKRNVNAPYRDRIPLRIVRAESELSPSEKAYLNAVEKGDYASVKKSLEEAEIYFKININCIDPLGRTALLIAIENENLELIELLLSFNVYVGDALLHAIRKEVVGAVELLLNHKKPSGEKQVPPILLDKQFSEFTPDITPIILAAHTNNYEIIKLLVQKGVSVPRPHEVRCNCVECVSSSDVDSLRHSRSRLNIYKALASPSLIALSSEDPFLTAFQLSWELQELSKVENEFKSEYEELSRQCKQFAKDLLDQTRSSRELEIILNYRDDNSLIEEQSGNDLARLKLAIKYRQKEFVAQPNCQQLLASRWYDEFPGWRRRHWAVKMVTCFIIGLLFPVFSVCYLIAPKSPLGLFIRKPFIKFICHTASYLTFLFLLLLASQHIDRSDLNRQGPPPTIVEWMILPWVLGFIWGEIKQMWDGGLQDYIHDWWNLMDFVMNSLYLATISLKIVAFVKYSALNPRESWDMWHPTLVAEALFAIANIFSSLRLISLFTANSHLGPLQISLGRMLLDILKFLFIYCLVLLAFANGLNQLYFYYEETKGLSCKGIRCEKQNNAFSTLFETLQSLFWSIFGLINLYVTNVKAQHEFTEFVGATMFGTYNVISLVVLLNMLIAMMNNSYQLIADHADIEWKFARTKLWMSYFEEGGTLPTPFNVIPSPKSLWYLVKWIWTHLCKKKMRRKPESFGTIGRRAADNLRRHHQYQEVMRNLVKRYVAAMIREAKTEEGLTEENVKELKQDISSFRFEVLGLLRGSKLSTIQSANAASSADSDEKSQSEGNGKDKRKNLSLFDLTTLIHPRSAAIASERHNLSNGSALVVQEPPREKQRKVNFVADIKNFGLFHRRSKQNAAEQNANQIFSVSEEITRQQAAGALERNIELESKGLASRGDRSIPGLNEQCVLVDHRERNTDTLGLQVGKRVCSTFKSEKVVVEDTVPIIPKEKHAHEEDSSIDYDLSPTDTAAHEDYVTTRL
In words: calcium entry via TRPC4 opening agents – cell-based, HEK293 TRPC4/mu-opioid, Fluo-4 calcium, dose response (AID 434937). In kind it is functional.

Experiment [13] can be described thus: non-specific 3'UTR reporter inhibition in Clone20-Shn3RL – cell-based, Renilla luciferase, cherry-picked, counter-screen for Shn3 inhibitor project, dose response (AID 624133). The experiment is classed as functional.
For experiment [14], the system named is Vero. Nature of the experiment: cells. In kind it is functional. To be noted: Chlorocebus sabaeus.
For experiment [15], the system named is Escherichia coli. Nature of the experiment: microbe, parasite or virus in culture.
A short description of experiment [16]: loss of viability in HepG2 cells – cell-based, CellTiter-Glo, cherry-picked, cytotoxicity control for Shn3 inhibitor project, dose response (AID 624134). In kind it is functional.
Another experiment has as its target Paired box protein Pax-8 (Homo sapiens, UniProt Q06710). Nature of the experiment: PAX8 transcriptional activity inhibition in RMG-I – RMG-I cells, luciferase, cherry-pick, dose response (AID 687027).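 Further: luciferase reporter driven by Pax8 target thyroperoxidase promoter measured by SteadyGlo luminescence.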 In kind it is functional, cell-based.
Experiment [17] relates to Vero. In words: cells. The experiment is classed as functional, cell-based. To be noted: Chlorocebus sabaeus.
Experiment [18] has as its system Escherichia coli. Nature of the experiment: microbe, parasite or virus in culture. The source holds these as a separate data set.
Experiment [19] can be described thus: reduction of Shn3 3'UTR-driven luciferase in osteoblasts – cell-based, Clone20 osteoblasts, firefly luciferase, cherry-picked, dose response (AID 624132).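 Further: firefly luciferase luminescence from reporter carrying the Shn3 3'UTR in osteoblasts.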 The experiment is classed as functional.
For another experiment, the target named is Hexokinase-1 (Homo sapiens, UniProt P19367). Nature of the experiment: hexokinase 1 activity inhibitors, potency – biochemical, set 2, resazurin fluorescence coupled readout, selectivity assay for HKDC1 inhibitor project, SAR follow-up (AID 588356). In kind it is functional.
Sequence of Hexokinase-1 (P19367 whole entry): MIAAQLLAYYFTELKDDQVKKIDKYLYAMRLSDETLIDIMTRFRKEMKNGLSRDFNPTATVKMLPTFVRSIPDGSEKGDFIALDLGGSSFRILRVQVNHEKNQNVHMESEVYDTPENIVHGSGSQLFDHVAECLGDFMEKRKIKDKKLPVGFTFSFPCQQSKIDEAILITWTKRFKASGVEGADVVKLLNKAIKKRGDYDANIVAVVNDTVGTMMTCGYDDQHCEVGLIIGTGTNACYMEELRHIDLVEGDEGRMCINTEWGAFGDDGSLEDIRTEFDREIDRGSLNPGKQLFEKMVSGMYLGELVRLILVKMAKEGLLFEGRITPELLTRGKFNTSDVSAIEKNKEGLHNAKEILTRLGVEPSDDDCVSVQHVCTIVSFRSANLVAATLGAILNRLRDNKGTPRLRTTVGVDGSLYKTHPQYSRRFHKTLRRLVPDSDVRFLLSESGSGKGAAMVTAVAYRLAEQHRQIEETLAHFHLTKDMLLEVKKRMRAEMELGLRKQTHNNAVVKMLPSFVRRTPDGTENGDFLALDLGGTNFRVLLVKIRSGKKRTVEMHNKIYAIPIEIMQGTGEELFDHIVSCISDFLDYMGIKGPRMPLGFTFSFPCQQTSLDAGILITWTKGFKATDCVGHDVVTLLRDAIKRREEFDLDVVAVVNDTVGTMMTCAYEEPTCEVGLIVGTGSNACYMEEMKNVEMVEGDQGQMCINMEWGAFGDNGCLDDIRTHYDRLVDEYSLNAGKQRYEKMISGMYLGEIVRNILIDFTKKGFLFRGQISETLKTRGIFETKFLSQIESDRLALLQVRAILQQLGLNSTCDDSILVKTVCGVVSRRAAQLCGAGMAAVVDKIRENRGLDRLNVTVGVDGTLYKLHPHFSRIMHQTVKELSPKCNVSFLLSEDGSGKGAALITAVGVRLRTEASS
The next experiment addresses T7, Hexokinase HKDC1 (Homo sapiens, UniProt Q2TB90).
T7 sequence (Q2TB90 whole entry): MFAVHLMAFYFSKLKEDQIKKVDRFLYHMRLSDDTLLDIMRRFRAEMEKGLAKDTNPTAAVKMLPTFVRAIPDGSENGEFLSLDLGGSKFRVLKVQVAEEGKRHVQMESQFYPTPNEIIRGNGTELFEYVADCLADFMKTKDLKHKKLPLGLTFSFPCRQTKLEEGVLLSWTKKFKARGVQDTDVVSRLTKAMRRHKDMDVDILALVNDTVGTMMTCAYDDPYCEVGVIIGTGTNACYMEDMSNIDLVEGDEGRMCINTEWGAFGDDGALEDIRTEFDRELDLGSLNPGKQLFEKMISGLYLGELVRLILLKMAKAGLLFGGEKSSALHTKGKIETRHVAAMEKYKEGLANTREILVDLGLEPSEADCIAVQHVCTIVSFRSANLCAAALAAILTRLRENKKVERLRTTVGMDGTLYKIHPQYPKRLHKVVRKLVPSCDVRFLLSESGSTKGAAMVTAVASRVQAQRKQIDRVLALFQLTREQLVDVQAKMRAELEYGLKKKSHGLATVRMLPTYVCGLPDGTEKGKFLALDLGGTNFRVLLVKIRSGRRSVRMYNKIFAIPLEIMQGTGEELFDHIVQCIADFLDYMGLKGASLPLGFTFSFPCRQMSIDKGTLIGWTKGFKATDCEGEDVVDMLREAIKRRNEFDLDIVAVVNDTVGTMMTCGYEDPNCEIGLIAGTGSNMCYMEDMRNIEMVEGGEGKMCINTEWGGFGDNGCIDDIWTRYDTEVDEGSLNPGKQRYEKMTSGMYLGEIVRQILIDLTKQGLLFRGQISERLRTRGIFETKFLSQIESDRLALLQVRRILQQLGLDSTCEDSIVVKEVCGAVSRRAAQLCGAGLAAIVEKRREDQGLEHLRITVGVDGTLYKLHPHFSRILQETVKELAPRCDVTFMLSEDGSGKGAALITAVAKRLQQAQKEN
Nature of the experiment: analog inhibition of human HKDC1 activity – biochemical, set 2, SAR follow-up (AID 588355). In kind it is functional.

The source made the active and inactive calls.

T1 sequence (Q64346 whole entry): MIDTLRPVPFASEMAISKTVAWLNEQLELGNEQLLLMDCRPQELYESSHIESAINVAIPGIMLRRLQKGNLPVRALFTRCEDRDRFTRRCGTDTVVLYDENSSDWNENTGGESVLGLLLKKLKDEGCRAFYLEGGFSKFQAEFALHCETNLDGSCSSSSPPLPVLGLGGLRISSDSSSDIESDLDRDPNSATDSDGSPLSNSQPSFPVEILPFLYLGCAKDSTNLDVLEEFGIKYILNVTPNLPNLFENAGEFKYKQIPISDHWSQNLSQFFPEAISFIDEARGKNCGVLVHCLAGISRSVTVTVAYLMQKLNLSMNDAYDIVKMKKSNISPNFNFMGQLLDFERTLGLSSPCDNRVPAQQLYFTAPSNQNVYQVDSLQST
Sequence of Beta-adrenergic receptor kinase 1 (P25098 whole entry): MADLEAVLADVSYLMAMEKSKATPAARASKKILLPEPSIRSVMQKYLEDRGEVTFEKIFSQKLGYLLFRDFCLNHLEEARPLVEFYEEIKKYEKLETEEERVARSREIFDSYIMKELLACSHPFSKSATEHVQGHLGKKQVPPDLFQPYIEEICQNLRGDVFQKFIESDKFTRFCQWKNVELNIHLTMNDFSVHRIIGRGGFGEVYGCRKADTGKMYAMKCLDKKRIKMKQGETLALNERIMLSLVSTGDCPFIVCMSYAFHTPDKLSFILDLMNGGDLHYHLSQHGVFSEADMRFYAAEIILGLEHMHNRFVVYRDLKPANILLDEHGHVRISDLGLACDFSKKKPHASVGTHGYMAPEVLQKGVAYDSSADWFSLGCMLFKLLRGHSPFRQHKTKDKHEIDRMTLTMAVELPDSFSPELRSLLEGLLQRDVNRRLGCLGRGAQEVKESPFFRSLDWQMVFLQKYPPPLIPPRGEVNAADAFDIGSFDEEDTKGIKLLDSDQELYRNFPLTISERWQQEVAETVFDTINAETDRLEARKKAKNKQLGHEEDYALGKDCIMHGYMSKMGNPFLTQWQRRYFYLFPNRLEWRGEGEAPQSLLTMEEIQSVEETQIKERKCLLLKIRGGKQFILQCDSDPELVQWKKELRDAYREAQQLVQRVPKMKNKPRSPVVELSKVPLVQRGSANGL
Sequence of Intestinal-type alkaline phosphatase (Mus musculus, UniProt P24822) (P24822 whole entry): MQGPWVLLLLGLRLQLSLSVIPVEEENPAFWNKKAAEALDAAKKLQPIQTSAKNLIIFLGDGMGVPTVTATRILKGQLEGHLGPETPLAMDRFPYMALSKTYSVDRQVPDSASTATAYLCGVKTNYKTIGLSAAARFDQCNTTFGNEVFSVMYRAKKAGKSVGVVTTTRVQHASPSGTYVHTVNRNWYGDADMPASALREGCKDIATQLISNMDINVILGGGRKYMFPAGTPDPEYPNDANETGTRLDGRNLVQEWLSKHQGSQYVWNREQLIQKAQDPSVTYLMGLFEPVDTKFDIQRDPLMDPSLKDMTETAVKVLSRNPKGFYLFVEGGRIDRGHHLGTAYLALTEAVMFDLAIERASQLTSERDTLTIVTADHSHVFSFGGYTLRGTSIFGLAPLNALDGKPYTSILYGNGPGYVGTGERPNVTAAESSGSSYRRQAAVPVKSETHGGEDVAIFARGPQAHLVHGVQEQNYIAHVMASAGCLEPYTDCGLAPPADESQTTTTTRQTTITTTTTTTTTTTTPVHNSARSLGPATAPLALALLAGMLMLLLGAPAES

For the compound `CCc1ccccc1NC(=O)CCS(=O)(=O)c1ccc(Br)cc1`, in [1], the concentration giving a half-maximal response (EC50) was 3.48 µM (active).

As to `CC(C)[C@@H](C(N)=O)n1c(=O)[nH]c(=O)n(-c2ccc(Cl)cc2)c1=O`, the IC50 in [2] was > 100 µM (inactive); in experiment [3], > 100 µM (not active); in experiment [4] it was > 100 µM (not active); in [5], > 100 µM (inactive).

With `O=C(O)C1OC(Oc2c(-c3ccc(O)c(O)c3)oc3cc(O)cc(O)c3c2=O)C(O)C(O)C1O` (stereo not given), the 50% inhibitory concentration (IC50) is 0.891 µM (active) in experiment [6]; > 100 µM (inactive) in [7]; 9.8 µM (active) at Large T antigen; 3.15 µM (active) in [8]; 48.2 µM (active) on Leucine aminopeptidase; 3.29 µM (active) in experiment [9].

Turning to `CN(C)C(CN=C(S)Nc1cccc(Cl)c1)c1cccnc1` (stereo not given), the EC50 in experiment [10] is > 92.5 µM (inactive); in experiment [11], 20.5 µM (inactive); on Mu-type opioid receptor, 7.49 µM (active); in experiment [12], 0.0133 µM (active).

In the case of `CC(N)C(=O)NC1C2C(=C(O)OC1(C)C(Cl)Cl)C(=O)CC(O)C2O` (stereo not given), the AC50 is 2.03 µM (active) in [13]; 20.8 µM (active) in the experiment on Escherichia coli [15]; > 70 µM (inactive) in experiment [16]; 0.546 µM (active) at Paired box protein Pax-8; 113 µM (active) in the experiment on Escherichia coli [18]; 1.85 µM (active) in [19]. Besides, the half-maximal cytotoxic concentration (CC50) in the experiment with Vero [14] was 3.08 µM (active). Besides, the IC50 with Vero [17] is > 25 µM (active).

Take `Cc1ccccc1N1C(=O)c2ccccc2C1Nc1ccc(Br)cc1` (stereo not given): the IC50 at Hexokinase-1 and on Hexokinase HKDC1 was > 80 µM (inactive) each time.
